The values below come from paper PMC11056991, “Promising Anticancer Prodrugs Based on Pt(IV) Complexes with Bis-organosilane Ligands in Axial Positions” (Journal of Medicinal Chemistry, 2024).

The subject of data set [1] is HCT 116 human colon cancer cells. In words: MTT cell viability assay, HCT 116. To be noted: MTT. The class given is cell-based.
Procedure: (§2) HIEC6 human healthy intestinal cells and HCT 116 and HT-29 human colon cancer cells were supplied by ATCC. Colon cancer cells were cultured in Dulbecco’s modified Eagle’s medium (DMEM) for HCT 116 and HT-29 supplemented with fetal bovine serum (10%). HIEC6 cells were cultured in Opti-MEM supplemented with fetal bovine serum (4%), HEPES (20 mM), glutamine (10 mM), and epidermal growth factor (10 ng/mL). Cells were maintained at 37 °C in a humidified atmosphere containing 5% CO2. Cells were seeded at 30% confluence in DMEM for HCT 116 and in Opti-MEM for HIEC6; after cell adhesion, HIEC6 cells were cultured in DMEM for 24h before being treated. All cells were treated with the indicated components at concentrations of 0.25–50 μM and incubated for 1–5 days as specified.
(§3) The MTT assay relies on a colorimetric reaction based on the capacity of living cells to reduce MTT to formazan and change the color to purple, which is easily measured by colorimetry. This assay estimates the cellular viability after the indicated treatments. Cells were treated with MTT (1:10 in culture medium) and incubated at 37 °C for 3 h for HCT 116 and HT-29 or 6 h for HIEC6. After removal of the medium, the formazan was resuspended in DMSO, transferred to p96 plates, and analyzed by a SpectraFLUOR (Tecan) at 542 nm. In all cases, viability was measured in duplicates of each point in three independent experiments.
Data set [2] deals with HIEC6 human healthy intestinal cells. In words: MTT cell viability assay, HIEC6. The class given is cell-based. To be noted: MTT; for Reduction in viability of healthy cells (HIEC6): 5 μM.
Procedure: as §2, §3
The test system of data set [3] is HCT 116 cells. The data set can be described thus: Trypan blue exclusion test. The class given is cell-based, human. To be noted: HCT 116, 0.5 μM, 2 days. As to the method:
HCT 116 cells were harvested by trypsinization followed by centrifugation at 500g for 5 min. The cell pellet was resuspended in 1 mL of PBS. Equal volumes of trypan blue (Bio-Rad cat. no. 1450021) 0.4% and cell suspension were mixed and incubated for 1–3 min at room temperature, and cell counting was carried out using a TC20 Automated Cell Counter (Bio-Rad cat. no. 1450102). The percentage of viable cells was calculated by dividing the number of viable cells per milliliter by the number total of cells per milliliter) × 100. Representative images were acquired using a Zeis light microscope with a 20× objective.

Data set [4] can be described thus: 195Pt NMR reduction kinetics with ascorbic acid. To be noted: AsA 4:1 excess, DMSO/D2O (4:1), 37 °C, 2, 6, 24 h. The class given is physicochemical. As for the experimental part:
(§1) AsA presents an intracellular concentration of 1 mM, whereas the GSH concentration is 2 mM.[38] This reactivity was monitored by ^195Pt NMR at different times. Thus, by analyzing the different regions where the signals of Pt(II)/Pt(IV) species appear, it is possible to identify and assign the different compounds formed during the reaction. In most cases, the regions where the Pt(II) and Pt(IV) signals appear are separated by more than 3000 ppm.[33]
We first studied the reduction of the complexes against AsA, monitoring the reaction in both the Pt(IV) and Pt(II) region at 2, 6, and 24 h. In both cases, we used a mixture of DMSO/D2O (4:1) to reach the solubilization of the complexes and the AsA. In the Pt(IV)-biSi-1 reduction experiment, during the first hour, only the signal at 1210 ppm appeared in the Pt(IV) region (Figure S13A), which corresponds to the original complex, and no signal was detected in the Pt(II) region.
Each solution was then slowly added to 100 μL of a solution of the corresponding reducing agent (AsA or GSH in an excess of 4:1 against each complex) in D2O at 37 °C. After that, 100 μL of DMSO-d6 was added carefully to each mixture, reaching a final concentration of […] (DMSO-d6/D2O). All of these mixtures were performed using a thermoshaker. Each sample was monitored by ^195Pt NMR at 2, 6, and 24 h.

A short description of data set [5]: 195Pt NMR reduction kinetics with glutathione. The class given is physicochemical. To be noted: GSH 4:1 excess, DMSO/D2O (4:1), 37 °C, 2, 6, 24 h. As for the experimental part: as §1
The reactivity of both complexes toward the reducing agent GSH was also studied using the DMSO/D2O (4:1) mixture. […] In the Pt(II) region, two signals appeared after 24 h at −2728 and −3405 ppm (Figure 2G). The first value is consistent with the cis-PtN2SX fraction,[41],[42] meaning that this species, once reduced to its Pt(II) homologue, coordinates with GSH by displacing a chloride ligand. The second signal corresponds to another Pt(II) moiety with more than one ligand containing sulfur atoms. […]
Each solution was then slowly added to 100 μL of a solution of the corresponding reducing agent (AsA or GSH in an excess of 4:1 against each complex) in D2O at 37 °C. […] Each sample was monitored by ^195Pt NMR at 2, 6, and 24 h.

A short description of data set [6]: Stability in DMEM by 195Pt NMR. The class given is physicochemical. To be noted: DMSO-d6/DMEM 1:4, 37 °C, 0, 24, 48, 120 h. From the text: We then decided to evaluate the stability of the two Pt(IV) complexes in the medium (DMEM) used to carry out the in vitro experiments, monitoring their kinetics by ^195Pt NMR at different times to evaluate the possible species formed over time. DMEM is supplemented with proteins and other molecules essential for cell growth (Experimental Section). Thus, similar to the reduction assays, we analyzed the Pt(II)/Pt(IV) region where the expected species appear. […] Both Pt(IV)/Pt(II) signals disappeared after 48 h, most likely again because of the binding of the complex to the proteins.
To each solution was then slowly and carefully added 300 μL of DMEM to avoid the precipitation of the complex, reaching a final concentration of 1:4 (DMSO-d6/DMEM). All these mixtures were performed using a thermoshaker. Each sample was monitored by ^195Pt NMR at 0, 24, 48, and 120 h.

Data set [7] has as its system p53 protein levels in HCT 116 cells. In words: Western blot of p53 levels. In kind it is cell-based, human. To be noted: HCT 116, 48 h, increasing concentrations. As for the experimental part:
Confocal imaging of the DNA damage response was followed by immunofluorescence of histone gH2Ax foci at double-strand DNA breaks (DSB) (Figure 4A). […] However, none of the Pt(IV) prodrugs were able to increase p53 levels even at concentrations higher than those needed to reduce cell viability.
Cells were washed with iced PBS before extract preparation and scraped in whole-cell protein lysis buffer (62.5 mM Tris-HCl pH 6.8, 2% sodium dodecyl sulfate (SDS), 0.01% bromophenol blue sodium salt, and 10% glycerol). Whole-cell protein lysates were incubated 15 min at 95 °C and directly used as whole cell extract or frozen at −80 °C. Proteins from lysed cells or immunoprecipitates were denatured and loaded on sodium dodecyl sulfate polyacrylamide gels and then transferred to polyvinylidene difluoride membranes (Bio-Rad). After blocking with 5% (w/v) milk, the membrane was incubated with the corresponding primary antibodies, anti-p53 sc-126 (Santa Cruz Biotechnology) or anti-tubulin (Sigma-Aldrich), and secondary antibodies (Bio-Rad). The specific bands were analyzed using the ChemiDoc Imaging Systems (Bio-Rad).

Where [8] appears, read: 2 days, experiment with intermediates, Figure 3A.
[9] abbreviates: 2 days, (final complexes, Figure 3B).

Take “cis-Dichloro(diisopropylamine)-trans-dihydroxoplatinum(IV) [iproplatin, reference compound]”: the “Cell viability, HCT 116 5uM 2 days” value in data set [1] (setting [8]) was 73.6 ± 5.4%. In addition, the “Cell viability, HIEC6 5uM 2 days” value in data set [2] (setting [8]) came to 69.8 ± 6.3%.

Take `CCO[Si](CCCNC(=O)[O][Pt]([NH2])([NH2])([Cl])([Cl])[O]C(=O)NCCC[Si](OCC)(OCC)OCC)(OCC)OCC` [Pt(IV)-biSi-1, cis-Dichloro(diamine)-trans-[3-(triethoxysilyl)propylcarbamate]platinum(IV)]: the “Cell viability, HCT 116 0.5uM 2 days” value in data set [1] (0.5 uM, 2 days) is recorded as 70.1 ± 6.0%. In addition, in data set [1] (0.5 μM, 2 days), the “Reduction of viability (cytotoxicity) of HCT 116 tumor cells” value is “very similar to those of cisplatin”. For the same compound, in data set [1] (0.5 uM, 5 days), the “Cell viability, HCT 116 0.5uM 5 days” value came out at 87.0 ± 5.0%. Also, the “Reduction in viability of cancer cells (HCT 116)” value in data set [1] (5 μM, 2 days) stood at 20%. Also, in data set [1] (setting [9]), the “Cell viability, HCT 116 5uM 2 days” value is on record as 78.8 ± 3.1%. For the same compound, the IC50 was 8.9 ± 0.6 µM in data set [1] (48 h, supplementary CSV, read-out: IC50 (uM) HCT 116) and 5.1 ± 0.7 µM in data set [2] (48 h, supplementary CSV, read-out: IC50 (uM) HIEC6). In addition, the “Cell viability, HIEC6 0.5uM 2 days” value in data set [2] (0.5 uM, 2 days) is given as 99.5 ± 1.8%. Moreover, in data set [2] (0.5 uM, 5 days), the “Cell viability, HIEC6 0.5uM 5 days” value was 105.3 ± 3.6%. Besides, the “Reduction in viability of healthy cells (HIEC6)” value in data set [2] (2 days) came to 60%. In data set [2] (setting [9]), the “Cell viability, HIEC6 5uM 2 days” value stood at 40.0 ± 1.8%. The “Reduction of viability by trypan blue staining” value in data set [3] is reported as 20%. The “Reduction of the Pt(IV) complex by AsA (Pt(IV) signal in 195Pt NMR)” value in data set [4] was “after 24 h, this signal underwent a marked decrease in intensity”. Further, in data set [5], the “Reduction of the Pt(IV) complex by GSH (Pt(IV) signal in 195Pt NMR)” value is “at 24 h, there is still a fraction of free complex without undergoing reduction”. In data set [6], the “Stability in DMEM (Pt(IV) signal in 195Pt NMR)” value is reported as “decreases with time up to 48 h, where a small fraction of the initial complex remains intact”.

Take `N.N.[Cl][Pt][Cl]` [cisplatin, Cisplatin, reference compound]: in data set [1] (5 μM, 5 days chronic treatment), the “Cells survived, HCT 116” value is listed as “more than 50%”. For the same compound, in data set [2] (2 days), the “Reduction in viability of healthy cells (HIEC6)” value is given as 60%. The “Reduction of viability by trypan blue staining” value in data set [3] came to 20%. Besides, the p53 levels entry in data set [7] was “increased p53 levels (at all concentrations)”.

On to `N.N.[Cl-].[Cl-].[OH-].[OH-].[Pt+4]` [oxoplatin, cis-Dichloro(diamine)-trans-dihydroxoplatinum(IV), reference compound], for which, in data set [1] (setting [8]), the “Cell viability, HCT 116 5uM 2 days” value is 82.9 ± 6.0%. The “Cell viability, HIEC6 5uM 2 days” value in data set [2] (setting [8]) is recorded as 65.3 ± 10.9%.
